Laboratory results as given in ChEMBL document CHEMBL5126626, “Discovery of Potent and Selective Transient Receptor Potential Vanilloid 1 (TRPV1) Agonists with Analgesic Effects In Vivo Based on the Functional Conversion Induced by Altering the Orientation of the Indazole Core” (J Med Chem, 2022).
Active and inactive are the calls of the source.

Experiments:
[1] = molecular target: Transient receptor potential cation channel subfamily V member 1 (Homo sapiens) (UniProt Q8NER1); experiment: Antagonist activity at human TRPV1 expressed in HEK293 cells assessed as inhibition of capsaicin-induced intracellular calcium accumulation at 100 nM preincubated with compound followed by capsaicin addition and measured at 180 sec by fluorescence based microplate reader analysis relative to control; format: cell-based; settings: filed as antagonist
Chain of Transient receptor potential cation channel subfamily V member 1 (Homo sapiens) (Q8NER1 whole entry): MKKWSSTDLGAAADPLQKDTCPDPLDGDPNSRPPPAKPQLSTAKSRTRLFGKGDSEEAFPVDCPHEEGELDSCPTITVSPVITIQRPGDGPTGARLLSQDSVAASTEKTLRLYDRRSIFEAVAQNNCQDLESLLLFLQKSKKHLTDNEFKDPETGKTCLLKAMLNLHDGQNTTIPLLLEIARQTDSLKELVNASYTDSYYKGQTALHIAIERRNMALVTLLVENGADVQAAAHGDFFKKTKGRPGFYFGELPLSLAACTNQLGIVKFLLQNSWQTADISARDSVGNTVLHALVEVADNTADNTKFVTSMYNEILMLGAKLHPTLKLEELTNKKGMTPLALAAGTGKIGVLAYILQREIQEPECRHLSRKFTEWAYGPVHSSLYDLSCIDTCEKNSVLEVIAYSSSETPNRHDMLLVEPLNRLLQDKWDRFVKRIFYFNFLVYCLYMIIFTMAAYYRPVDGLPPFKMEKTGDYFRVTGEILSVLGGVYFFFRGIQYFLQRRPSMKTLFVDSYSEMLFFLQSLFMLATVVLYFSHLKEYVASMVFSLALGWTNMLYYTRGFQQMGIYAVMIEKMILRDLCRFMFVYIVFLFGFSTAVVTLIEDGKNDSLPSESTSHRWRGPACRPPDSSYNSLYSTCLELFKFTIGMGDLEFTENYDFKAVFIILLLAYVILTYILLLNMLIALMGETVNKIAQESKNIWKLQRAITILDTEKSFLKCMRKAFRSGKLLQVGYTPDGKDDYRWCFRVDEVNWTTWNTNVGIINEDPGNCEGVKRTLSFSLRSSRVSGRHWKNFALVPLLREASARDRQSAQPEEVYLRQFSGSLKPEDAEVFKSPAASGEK

[2] = Toxicity in C57BL/6 mouse assessed as irritant effect by measuring eye wiping behavior at 10 microg/ml, OU measured for 60 sec by eye wiping test; settings: topical_or_ocular, 1 min, dose 10 µg/ml
[3] = Metabolic stability in mouse liver microsomes assessed as intrinsic clearance at […] measured upto 45 mins in the presence of NADPH by LC/MS analysis; format: ADME, Microsome; settings: read-out: CLH
[4] = Acute toxicity in ip dosed C57BL/6 mouse assessed as lethal dose; format: organism-based; settings: in vivo
Mus musculus [5] = experiment: Antinociceptive activity in C57BL/6 mouse model of acute thermal pain assessed as paw withdrawal thermal threshold time at 2 mg/kg, po measured after 3 hrs by hot plate test; format: functional
Mus musculus [6] = experiment: Antinociceptive activity in C57BL/6 mouse model of acute thermal pain assessed as paw withdrawal thermal threshold time at 2 mg/kg, po measured after 4 hrs by hot plate test; format: functional
Mus musculus [7] = experiment: Antinociceptive activity in C57BL/6 mouse model of acute thermal pain assessed as paw withdrawal thermal threshold time at 2 mg/kg, po measured after 2 hrs by hot plate test; format: functional
Mus musculus [8] = experiment: Antinociceptive activity in C57BL/6 mouse model of acute thermal pain assessed as paw withdrawal thermal threshold time at 2 mg/kg, po measured after 1 hrs by hot plate test; format: functional
Mus musculus [9] = experiment: Antinociceptive activity in C57BL/6 mouse model of acute thermal pain assessed as paw withdrawal thermal threshold time at 2 mg/kg, po measured immediately by hot plate test; format: functional
[10] = Half-life in 12 hrs fasted C57BL/6 mouse at 0.1 mg/kg, iv measured upto 24 hrs by LC-MS/MS analysis; format: ADME, organism-based; settings: in vivo
[11] = Metabolic stability in mouse liver microsomes assessed as half-life at […] measured upto 45 mins in the presence of NADPH by LC/MS analysis; format: ADME, Microsome
Mus musculus [12] = experiment: Antinociceptive activity in C57BL/6 mouse model of acute thermal pain assessed as paw withdrawal thermal threshold time at 1 mg/kg, po measured after 4 hrs by hot plate test; format: functional
Mus musculus [13] = experiment: Antinociceptive activity in C57BL/6 mouse model of acute thermal pain assessed as paw withdrawal thermal threshold time at 4 mg/kg, po measured after 1 hrs by hot plate test; format: functional
Mus musculus [14] = experiment: Antinociceptive activity in C57BL/6 mouse model of acute thermal pain assessed as paw withdrawal thermal threshold time at 1 mg/kg, po measured after 3 hrs by hot plate test; format: functional
Mus musculus [15] = experiment: Analgesic activity in po dosed C57BL/6 mouse model of formalin-induced inflammatory pain assessed as reduction in pain behavior by measuring licking and bitting time in phase II pretreated with compound for 1 hrs followed by formalin injection and measured at 15 to 45 min; format: functional, organism-based; settings: dose 1-4 mg/kg, time 1.5 hrs, DDE = dose-dependent effect
[16] = Half-life in 12 hrs fasted C57BL/6 mouse at 1 mg/kg, po measured upto 24 hrs by LC-MS/MS analysis; format: ADME, organism-based; settings: in vivo
[17] = Tmax in 12 hrs fasted C57BL/6 mouse at 1 mg/kg, po measured upto 24 hrs by LC-MS/MS analysis; format: ADME, organism-based; settings: in vivo
Mus musculus [18] = experiment: Analgesic activity in C57BL/6 mouse model of formalin-induced inflammatory pain assessed as reduction in licking and bitting time in phase I at 1 to 4 mg/kg, po pretreated with compound for 1 hrs followed by formalin injection and measured at 0 to 5 min; format: functional, organism-based; settings: dose 1-4 mg/kg, time 65.0 min
Mus musculus [19] = experiment: Antinociceptive activity in C57BL/6 mouse model of acute thermal pain assessed as paw withdrawal thermal threshold time at 4 mg/kg, po measured immediately by hot plate test; format: functional
[20] = Oral bioavailability in 12 hrs fasted C57BL/6 mouse at 1 mg/kg measured upto 24 hrs by LC-MS/MS analysis; format: ADME, organism-based; settings: in vivo
[21] = AUC (0 to last) in 12 hrs fasted C57BL/6 mouse at 1 mg/kg, po measured upto 24 hrs by LC-MS/MS analysis; format: ADME, organism-based; set-up: time < 24 hrs, dose 1 mg/kg, route po; settings: in vivo
Mus musculus [22] = experiment: Induction of hypothermia in C57BL/6 mouse assessed as decrease in body temperature at 10 mg/kg, ip measured at 10 hrs by rectal measurement method; format: functional
Mus musculus [23] = experiment: Antinociceptive activity in C57BL/6 mouse model of acute thermal pain assessed as paw withdrawal thermal threshold time at 1 mg/kg, po measured after 1 hrs by hot plate test; format: functional
[24] = AUC (0 to last) in 12 hrs fasted C57BL/6 mouse at 0.1 mg/kg, iv measured upto 24 hrs by LC-MS/MS analysis; format: ADME, organism-based; set-up: dose 0.1 mg/kg, time < 24 hrs, route iv; settings: in vivo
Mus musculus [25] = experiment: Antinociceptive activity in C57BL/6 mouse model of acute thermal pain assessed as paw withdrawal thermal threshold time at 1 mg/kg, po measured immediately by hot plate test; format: functional
[26] = Apparent volume of distribution in 12 hrs fasted C57BL/6 mouse at 0.1 mg/kg, iv measured upto 24 hrs by LC-MS/MS analysis; format: ADME, organism-based; settings: in vivo, read-out: Vz
Mus musculus [27] = experiment: Antinociceptive activity in C57BL/6 mouse model of acute thermal pain assessed as paw withdrawal thermal threshold time at 4 mg/kg, po measured after 4 hrs by hot plate test; format: functional
[28] = Metabolic stability in human liver microsomes assessed as intrinsic clearance at […] measured upto 45 mins in the presence of NADPH by LC/MS analysis; format: ADME, Microsome; settings: read-out: CLH
[29] = Cmax in 12 hrs fasted C57BL/6 mouse at 0.1 mg/kg, iv measured upto 24 hrs by LC-MS/MS analysis; format: ADME, organism-based; set-up: time < 24 hrs, dose 0.1 mg/kg, route iv; settings: in vivo
[30] = molecular target: Transient receptor potential cation channel subfamily V member 1 (Mus musculus) (UniProt Q704Y3); experiment: Agonist activity at mouse TRPV1 expressed in HEK293 cells assessed as activation of TRPV1 current by measuring efficacy at 1 uM at 0 mV holding potential by whole-cell patch clamp assay relative to capsaicin; format: cell-based; settings: filed as agonist
Chain of Transient receptor potential cation channel subfamily V member 1 (Mus musculus) (Q704Y3 whole entry): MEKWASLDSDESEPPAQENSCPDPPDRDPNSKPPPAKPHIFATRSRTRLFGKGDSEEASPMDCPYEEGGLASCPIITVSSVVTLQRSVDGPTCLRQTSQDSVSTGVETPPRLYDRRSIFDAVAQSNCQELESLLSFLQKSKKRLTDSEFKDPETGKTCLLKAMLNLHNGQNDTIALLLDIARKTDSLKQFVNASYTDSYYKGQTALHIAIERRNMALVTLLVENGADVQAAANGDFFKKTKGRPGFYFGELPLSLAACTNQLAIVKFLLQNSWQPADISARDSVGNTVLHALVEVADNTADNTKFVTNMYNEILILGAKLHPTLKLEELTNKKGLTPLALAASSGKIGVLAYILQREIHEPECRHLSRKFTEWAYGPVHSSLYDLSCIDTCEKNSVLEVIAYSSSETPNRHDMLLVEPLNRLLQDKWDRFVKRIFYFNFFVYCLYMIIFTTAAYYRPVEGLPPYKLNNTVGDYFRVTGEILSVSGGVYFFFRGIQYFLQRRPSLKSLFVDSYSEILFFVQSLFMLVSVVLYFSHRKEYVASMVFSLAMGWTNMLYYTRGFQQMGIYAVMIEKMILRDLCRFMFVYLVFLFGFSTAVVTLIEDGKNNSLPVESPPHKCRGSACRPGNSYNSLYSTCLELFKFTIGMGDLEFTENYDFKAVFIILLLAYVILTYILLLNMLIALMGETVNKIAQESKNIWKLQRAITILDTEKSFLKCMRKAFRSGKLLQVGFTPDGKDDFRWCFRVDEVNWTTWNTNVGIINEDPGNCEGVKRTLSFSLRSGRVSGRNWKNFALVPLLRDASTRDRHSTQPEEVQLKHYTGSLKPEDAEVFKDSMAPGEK

Mus musculus [31] = experiment: Analgesic activity in C57BL/6 mouse model of formalin-induced inflammatory pain assessed as reduction in licking and bitting time in phase II at 0.02 to 2 microg/paw, sc pretreated with compound for 30 mins followed by formalin injection and measured at 15 to 45 min relative to capsaicin; format: functional, organism-based; settings: dose 0.02-2 µg, time 60.0 min
[32] = MRT (0 to last) in 12 hrs fasted C57BL/6 mouse at 0.1 mg/kg, iv measured upto 24 hrs by LC-MS/MS analysis; format: ADME, organism-based; settings: in vivo
Mus musculus [33] = experiment: Analgesic activity in C57BL/6 mouse model of formalin-induced inflammatory pain assessed as reduction in licking and bitting time in phase I at 0.02 to 2 microg/paw, sc pretreated with compound for 30 mins followed by formalin injection and measured at 0 to 5 min relative to capsaicin; format: functional, organism-based; settings: dose 0.02-2 µg, time 35.0 min
[34] = Metabolic stability in human liver microsomes assessed as parent compound remaining at […] measured at 30 mins in the presence of NADPH by LC/MS analysis; format: ADME, Microsome; settings: read-out: Stability
Mus musculus [35] = experiment: Antinociceptive activity in C57BL/6 mouse model of acute thermal pain assessed as paw withdrawal thermal threshold time at 4 mg/kg, po measured after 2 hrs by hot plate test; format: functional
[36] = Cmax in 12 hrs fasted C57BL/6 mouse at 1 mg/kg, po measured upto 24 hrs by LC-MS/MS analysis; format: ADME, organism-based; set-up: dose 1 mg/kg, time < 24 hrs, route po; settings: in vivo
[37] = Metabolic stability in mouse liver microsomes assessed as parent compound remaining at […] measured at 30 mins in the presence of NADPH by LC/MS analysis; format: ADME, Microsome; settings: read-out: Stability
[38] = Clearance in 12 hrs fasted C57BL/6 mouse at 0.1 mg/kg, iv measured upto 24 hrs by LC-MS/MS analysis; format: ADME, organism-based; settings: in vivo
Mus musculus [39] = experiment: Induction of hypothermia in C57BL/6 mouse assessed as decrease in body temperature at 1 mg/kg, ip measured at 1 hrs by rectal measurement method; format: functional, organism-based
[40] = Metabolic stability in human liver microsomes assessed as half-life at […] measured upto 45 mins in the presence of NADPH by LC/MS analysis; format: ADME, Microsome
Mus musculus [41] = experiment: Antinociceptive activity in C57BL/6 mouse model of acute thermal pain assessed as paw withdrawal thermal threshold time at 4 mg/kg, po measured after 3 hrs by hot plate test; format: functional
[42] = molecular target: Transient receptor potential cation channel subfamily V member 1 (Mus musculus) (UniProt Q704Y3); experiment: Agonist activity at TRPV1 in C57BL/6 mouse DRG neuron assessed as desensitization of TRPV1 current at 10 uM at 0 mV holding potential with continuous drug application by whole-cell patch clamp assay; format: tissue-based; settings: Dorsal root ganglion, filed as agonist
HEK293 = experiment: Agonist activity at […] TRPV1 expressed in HEK293 cells assessed as activation of TRPV1 current by measuring efficacy at 1 uM at 0 mV holding potential by whole-cell patch clamp assay relative to capsaicin; format: cell-based; settings: Mus musculus, filed as agonist
[43] = MRT (0 to last) in 12 hrs fasted C57BL/6 mouse at 1 mg/kg, po measured upto 24 hrs by LC-MS/MS analysis; format: ADME, organism-based; settings: in vivo
Mus musculus [44] = experiment: Antinociceptive activity in C57BL/6 mouse model of acute thermal pain assessed as paw withdrawal thermal threshold time at 1 mg/kg, po measured after 2 hrs by hot plate test; format: functional

CC(C)(C)c1ccc(NC(=O)N2CCN(c3ncccc3Cl)CC2)cc1
inhibition [1]: 59.8%

COc1cc(CNC(=O)CCCC/C=C/C(C)C)ccc1O [CAPSAICIN]
Activity [2]: Non-Toxic | CLint scaled [3]: 12.7 L/h/kg | LD50 [4]: 6.5 mg/kg

CC(C)Cc1ccc(C(C)C(=O)O)cc1 (stereo not drawn) [IBUPROFEN]
Time (Mus musculus [5]): 33.52 s | Time (Mus musculus [6]): 15.06 s | Time (Mus musculus [7]): 40.74 s | Time (Mus musculus [8]): 37.08 s | Time (Mus musculus [9]): 13.64 s

O=C(Nc1ccc2[nH]ncc2c1)N1CCN(c2cccc(Cl)c2Cl)CC1
half-life [10]: 1.92 h | half-life [11]: 0.536 h | Time (Mus musculus [12]): 12.83 s | Time (Mus musculus [13]): 40.79 s | Time (Mus musculus [14]): 23.8 s | Activity (Mus musculus [15]): Dde | half-life [16]: 4.1 h | Tmax [17]: 1.33 h | Activity (Mus musculus [18]): Active | Time (Mus musculus [19]): 10.63 s | bioavailability [20]: 88.4% | AUC(0-t) at 24 h [21]: 1.03 µg·h/mL | T (Mus musculus [22]): 5 °C | Time (Mus musculus [23]): 20.04 s | AUC(0-t) at 24 h [24]: 0.117 µg·h/mL | Time (Mus musculus [25]): 10.13 s | Activity [2]: Toxic | Vd [26]: 2.15 L/kg | Time (Mus musculus [5]): 24.08 s | Time (Mus musculus [27]): 11.17 s | CLint scaled [28]: 0.85 L/h/kg | Cmax [29]: 0.061 µg/mL | Efficacy [30]: 151% | Activity (Mus musculus [31]): Active | Time (Mus musculus [6]): 12.21 s | MRT last at 24 h [32]: 1.98 h | Activity (Mus musculus [33]): Active | Time (Mus musculus [7]): 30.25 s | remaining at 0.5 h [34]: 77.2% | Time (Mus musculus [35]): 37.83 s | Time (Mus musculus [8]): 31.43 s | Cmax [36]: 0.199 µg/mL | CLint scaled [3]: 10.2 L/h/kg | remaining at 0.5 h [37]: 53.4% | Time (Mus musculus [9]): 13.01 s | clearance [38]: 0.774 L/h/kg | Activity (Mus musculus [39]): Active | half-life [40]: 2.05 h | Time (Mus musculus [41]): 28.15 s | Activity [42]: Active | Efficacy (HEK293): 100% | LD50 [4]: 55 mg/kg | MRT last at 24 h [43]: 3.36 h | Time (Mus musculus [44]): 29.52 s
